Measured values: ChEMBL document CHEMBL3885861, “Open TG-GATES”

Organism: Rattus norvegicus
Experiment: Open TG-GATES - Regimen: Single
Type: toxicity, organism-based, Sprague-Dawley
Parameters: regimen Single, gender Male, age 6 weeks
Details: in vivo, po, 10 mg/kg, route gavage, dose level Middle; for APTT / Bas / Eos / Fbg / Hb / Ht / Lym / MCH / MCHC / MCV / Mono / Neu / PT / Plat / RBC / Ret / WBC: tissue Blood; for KIDNEY_L / KIDNEY_R / KIDNEY_TOTAL: tissue Kidney; for LIVER: tissue Liver; for A/G / ALP / ALT / AST / BUN / CRE / Ca / Cl / DBIL / GLC / IP / K / LDH / Na / PL / RALB / TBIL / TC / TG / TP / gamma-GTP: tissue Plasma

For CN(C)CCC(c1ccc(Cl)cc1)c1ccccn1 (configuration not stated) [CHLORPHENIRAMINE], the TERMINAL_BW (3 h) was 196.8 g, the APTT (3 h) was 19.7 s and the Bas (3 h) was 0%. The Eos (3 h) was 0.4%, the Fbg (3 h) was 295.8 mg/dL and the Hb (3 h) was 13.5 g/dL. For the same compound, the Ht (3 h) was 42%, the Lym (3 h) was 77.4% and the MCH (3 h) was 21.3 pg. The MCHC (3 h) was 32.1%, the MCV (3 h) was 66.1 fL and the Mono (3 h) was 3%. The Neu (3 h) was 18.2%, the PT (3 h) was 14.7 s and the Plat (3 h) was 126.4 x10_4/uL. For the same compound, the RBC (3 h) was 634 x10_4/ul, the Ret (3 h) was 9.7% and the WBC (3 h) was 73.4 x10_2/uL. For the same compound, the KIDNEY_L (3 h) was 0.8 g, the KIDNEY_R (3 h) was 0.8 g and the KIDNEY_TOTAL (3 h) was 1.6 g. It also gave an LIVER (3 h) of 9 g, an A/G (3 h) of 0.9 and an ALP (3 h) of 1551 IU/L. For the same compound, the ALT (3 h) was 47.4 IU/L, the AST (3 h) was 74.6 IU/L and the BUN (3 h) was 9.2 mg/dL. It also gave a CRE (3 h) of 0.2 mg/dL, a Ca (3 h) of 10.9 mg/dL and a Cl (3 h) of 107.6 meq/L. The DBIL (3 h) was 0.006 mg/dL, the GLC (3 h) was 180.2 mg/dL and the IP (3 h) was 10.3 mg/dL. It also gave a K (3 h) of 4.1 meq/L, an LDH (3 h) of 200.6 IU/L and a Na (3 h) of 144.6 meq/L. The PL (3 h) was 156 mg/dL, the RALB (3 h) was 2.6 g/dL and the TBIL (3 h) was 0.046 mg/dL. For the same compound, the TC (3 h) was 84.6 mg/dL, the TG (3 h) was 75 mg/dL and the TP (3 h) was 5.5 g/dL. For the same compound, the gamma-GTP (3 h) was 1 IU/L, the TERMINAL_BW (6 h) was 195.1 g and the APTT (6 h) was 21.5 s. The Bas (6 h) was 0%, the Eos (6 h) was 1% and the Fbg (6 h) was 297 mg/dL. The Hb (6 h) was 13.2 g/dL, the Ht (6 h) was 41% and the Lym (6 h) was 74.4%. It also gave an MCH (6 h) of 20.6 pg, an MCHC (6 h) of 32.2% and an MCV (6 h) of 64 fL. For the same compound, the Mono (6 h) was 3%, the Neu (6 h) was 20.8% and the PT (6 h) was 14.9 s. For the same compound, the Plat (6 h) was 129.3 x10_4/uL, the RBC (6 h) was 641.2 x10_4/ul and the Ret (6 h) was 8.8%. The WBC (6 h) was 74.4 x10_2/uL, the KIDNEY_L (6 h) was 0.8 g and the KIDNEY_R (6 h) was 0.9 g. It also gave a KIDNEY_TOTAL (6 h) of 1.7 g, an LIVER (6 h) of 8.4 g and an A/G (6 h) of 0.9. For the same compound, the ALP (6 h) was 1438.8 IU/L, the ALT (6 h) was 42.2 IU/L and the AST (6 h) was 73.4 IU/L. For the same compound, the BUN (6 h) was 7.8 mg/dL, the CRE (6 h) was 0.2 mg/dL and the Ca (6 h) was 10.5 mg/dL. For the same compound, the Cl (6 h) was 107 meq/L, the DBIL (6 h) was 0.006 mg/dL and the GLC (6 h) was 177.4 mg/dL. It also gave an IP (6 h) of 10.1 mg/dL, a K (6 h) of 4.2 meq/L and an LDH (6 h) of 176 IU/L. For the same compound, the Na (6 h) was 142.6 meq/L, the PL (6 h) was 140.6 mg/dL and the RALB (6 h) was 2.5 g/dL. The TBIL (6 h) was 0.04 mg/dL, the TC (6 h) was 80.8 mg/dL and the TG (6 h) was 42.6 mg/dL. For the same compound, the TP (6 h) was 5.5 g/dL, the gamma-GTP (6 h) was 1.6 IU/L and the TERMINAL_BW (9 h) was 192.7 g. For the same compound, the APTT (9 h) was 17.7 s, the Bas (9 h) was 0% and the Eos (9 h) was 1%. It also gave a Fbg (9 h) of 292.6 mg/dL, a Hb (9 h) of 13.3 g/dL and a Ht (9 h) of 41.3%. For the same compound, the Lym (9 h) was 76.2%, the MCH (9 h) was 20.8 pg and the MCHC (9 h) was 32.3%. The MCV (9 h) was 64.3 fL, the Mono (9 h) was 1.8% and the Neu (9 h) was 20.6%. The PT (9 h) was 15.1 s, the Plat (9 h) was 123.4 x10_4/uL and the RBC (9 h) was 643.8 x10_4/ul. The Ret (9 h) was 8.5%, the WBC (9 h) was 67.8 x10_2/uL and the KIDNEY_L (9 h) was 0.9 g. The KIDNEY_R (9 h) was 0.9 g, the KIDNEY_TOTAL (9 h) was 1.8 g and the LIVER (9 h) was 7.5 g. For the same compound, the A/G (9 h) was 0.9, the ALP (9 h) was 1406.4 IU/L and the ALT (9 h) was 35.2 IU/L. The AST (9 h) was 69 IU/L, the BUN (9 h) was 7.2 mg/dL and the CRE (9 h) was 0.1 mg/dL. For the same compound, the Ca (9 h) was 10.4 mg/dL, the Cl (9 h) was 105.6 meq/L and the DBIL (9 h) was 0.008 mg/dL. It also gave a GLC (9 h) of 162 mg/dL, an IP (9 h) of 10.4 mg/dL and a K (9 h) of 4 meq/L. It also gave an LDH (9 h) of 145.2 IU/L, a Na (9 h) of 142.4 meq/L and a PL (9 h) of 131.2 mg/dL. It also gave an RALB (9 h) of 2.5 g/dL, a TBIL (9 h) of 0.054 mg/dL and a TC (9 h) of 80 mg/dL. It also gave a TG (9 h) of 37.8 mg/dL, a TP (9 h) of 5.5 g/dL and a gamma-GTP (9 h) of 1.4 IU/L. The TERMINAL_BW (24 h) was 209.2 g, the APTT (24 h) was 21.6 s and the Bas (24 h) was 0%. For the same compound, the Eos (24 h) was 0.8%, the Fbg (24 h) was 287.6 mg/dL and the Hb (24 h) was 12.5 g/dL. It also gave a Ht (24 h) of 38.8%, a Lym (24 h) of 76.4% and an MCH (24 h) of 20.7 pg. It also gave an MCHC (24 h) of 32.4%, an MCV (24 h) of 63.9 fL and a Mono (24 h) of 3.8%. For the same compound, the Neu (24 h) was 18.2%, the PT (24 h) was 14.8 s and the Plat (24 h) was 118.2 x10_4/uL. For the same compound, the RBC (24 h) was 606.6 x10_4/ul, the Ret (24 h) was 8.5% and the WBC (24 h) was 79.8 x10_2/uL. It also gave a KIDNEY_L (24 h) of 0.9 g, a KIDNEY_R (24 h) of 0.9 g and a KIDNEY_TOTAL (24 h) of 1.7 g. For the same compound, the LIVER (24 h) was 9 g, the A/G (24 h) was 0.9 and the ALP (24 h) was 1569.6 IU/L. For the same compound, the ALT (24 h) was 46.4 IU/L, the AST (24 h) was 77.8 IU/L and the BUN (24 h) was 14.8 mg/dL. The CRE (24 h) was 0.2 mg/dL, the Ca (24 h) was 10.8 mg/dL and the Cl (24 h) was 106.6 meq/L. It also gave a DBIL (24 h) of 0.01 mg/dL, a GLC (24 h) of 184.2 mg/dL and an IP (24 h) of 8.2 mg/dL. The K (24 h) was 4.3 meq/L, the LDH (24 h) was 132.2 IU/L and the Na (24 h) was 142.8 meq/L. It also gave a PL (24 h) of 142.8 mg/dL, an RALB (24 h) of 2.6 g/dL and a TBIL (24 h) of 0.04 mg/dL. For the same compound, the TC (24 h) was 76.4 mg/dL, the TG (24 h) was 82.6 mg/dL and the TP (24 h) was 5.5 g/dL. The gamma-GTP (24 h) was 1.2 IU/L.
